In the supplement of paper PMC8967900:

Assays:
Assay in all cases: selective drug sensitivity score (sDSS, relative to normal bone marrow) (sDSS (score)); higher = more potent and effective on the cell line relative to normal bone marrow cells
Details in all cases: 72 h
REH = system: REH
MOLT-14 = system: MOLT-14
PEER = system: PEER
COG-LL-332h = system: COG-LL-332h
COG-LL-319h = system: COG-LL-319h
SEM cells = system: SEM cells
MOLT-16 = system: MOLT-16
ALL-SIL = system: ALL-SIL
MHH-CALL-3 = system: MHH-CALL-3
MHH-CALL-4 = system: MHH-CALL-4
P30-OHKUBO = system: P30-OHKUBO
TMD5 = system: TMD5
RCH-ACV = system: RCH-ACV
CCRF-CEM = system: CCRF-CEM
TANOUE = system: TANOUE
MN-60 = system: MN-60
MHH-CALL-2 = system: MHH-CALL-2
COG-LL-394h = system: COG-LL-394h
KASUMI-10 = system: KASUMI-10
380 = system: 380
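Also: ALL cell lines in 384-well plates, five doses spanning 10,000-fold, each plate scaled between vehicle and 100 µmol/L benzalkonium chloride controls, sDSS an adapted area-under-curve metric.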

Structure (SMILES)	selective drug sensitivity score (REH)	selective drug sensitivity score (MOLT-14)	selective drug sensitivity score (PEER)	selective drug sensitivity score (COG-LL-332h)	selective drug sensitivity score (COG-LL-319h)	selective drug sensitivity score (SEM cells)	selective drug sensitivity score (MOLT-16)	selective drug sensitivity score (ALL-SIL)	selective drug sensitivity score (MHH-CALL-3)	selective drug sensitivity score (MHH-CALL-4)	selective drug sensitivity score (P30-OHKUBO)	selective drug sensitivity score (TMD5)	selective drug sensitivity score (RCH-ACV)	selective drug sensitivity score (CCRF-CEM)	selective drug sensitivity score (TANOUE)	selective drug sensitivity score (MN-60)	selective drug sensitivity score (MHH-CALL-2)	selective drug sensitivity score (COG-LL-394h)	selective drug sensitivity score (KASUMI-10)	selective drug sensitivity score 380
C[C@@H]1COCCN1c1cc(C2([S@](C)(=N)=O)CC2)nc(-c2cc[nH]c3nccc2-3)n1 [AZD6738] (top concentration 25000 nM)	13.1	11.5	5.88	8.08	15.6	17.2	13	8.88	12.2	5.48	5.78	5.88	15.9	10.8	-6.12	-1.02	13.2	-2.72	8.08	19.5
NC1(C(=O)N[C@@H](CCO)c2ccc(Cl)cc2)CCN(c2ncnc3[nH]ccc23)CC1 [AZD-5363] (top concentration 10000 nM)	11.3	-1.88	-0.88	4.02	4.72	4.82	13.3	3.52	6.72	5.52	5.22	6.62	10.9	9.32	-2.88	0.12	7.82	-1.08	1.62	8.82
C[C@@H](Nc1cc(F)cc(F)c1)c1cc(C(=O)N(C)C)cc2c(=O)cc(N3CCOCC3)oc12 [AZD-8186] (top concentration 1000 nM)	9.54	-0.26	-0.26	-0.26	0.74	2.44	-0.26	-0.26	3.84	4.34	7.24	-0.26	14.9	-0.26	-0.26	-0.26	4.64	-0.26	-0.26	2.84
COc1cccc2c1C(=O)c1c(O)c3c(c(O)c1C2=O)C[C@@](O)(/C(CO)=N/NC(=O)CCCCCN1C(=O)C=CC1=O)C[C@@H]3O[C@H]1C[C@H](N)[C@H](O)[C@H](C)O1 [Aldoxorubicin] (top concentration 1000 nM)	12.1	12.9	-3.06	12.1	14	3.64	16.6	0.74	14.1	8.14	7.34	0.34	11.7	7.24	-7.76	0.84	9.84	8.24	9.24	13.2
COc1cc(Nc2ncc3c(n2)-c2ccc(Cl)cc2C(c2c(F)cccc2OC)=NC3)ccc1C(=O)O [Alisertib] (top concentration 10000 nM)	14.4	21	26.6	24.8	23.3	26.8	29.6	17.2	12	-5.62	25.4	11	24.3	21.5	-5.62	-3.42	14.9	2.28	14.6	26.4
Cc1nc(NC(=O)N2CCC[C@H]2C(N)=O)sc1-c1ccnc(C(C)(C)C(F)(F)F)c1 [Alpelisib] (top concentration 2500 nM)	-0.12	-0.82	-0.42	0.18	12.5	-0.82	-0.72	6.28	-0.82	-0.22	2.78	-0.82	8.98	0.48	-0.82	1.18	1.68	0.78	-0.12	3.18
CCN(CC)CCNC(=O)c1c(C)[nH]c(/C=C2\C(=O)Nc3ccc(-c4csc(-c5ccccc5)n4)cc32)c1C [Amcasertib] (top concentration 10000 nM)	3.6	3.4	4	7.2	-0.1	3	3.5	3.6	-3.2	2.2	3.9	-1.7	3.3	6.7	-2.6	-0.2	4.9	1.3	5.2	7.8
COc1c(C)cnc(Cn2cnc3c(Cl)nc(N)nc32)c1C [BIIB021] (top concentration 10000 nM)	5.68	7.28	3.58	8.98	1.78	7.38	12.7	5.88	9.58	1.28	3.38	1.58	9.58	7.88	-8.12	-2.62	2.48	-4.02	8.78	7.68
O=C(/C=C/c1cccc(S(=O)(=O)Nc2ccccc2)c1)NO [Belinostat] (top concentration 10000 nM)	5.1	12.2	7.8	7.9	11.8	7.6	10.1	8.9	17.5	7.5	8	6.3	14.3	8.7	-4.5	1.8	11	2.1	7.6	16.2
Nc1cc(C(F)(F)F)c(-c2cc(N3CCOCC3)nc(N3CCOCC3)n2)cn1 [Buparlisib] (top concentration 10000 nM)	5.18	5.48	6.48	3.58	4.58	7.08	4.08	8.28	-1.22	2.78	7.28	-1.82	13.3	5.28	-1.22	2.68	5.28	0.38	2.48	7.18
CCS(=O)(=O)N1CCN(c2ccc(Nc3ncc(C(N)=O)c(NC4CC4)n3)cc2)CC1 [Cerdulatinib] (top concentration 10000 nM)	-5.16	-3.16	-0.16	-4.26	2.14	2.54	-2.36	-0.76	-11.9	-5.46	3.44	-4.46	13.3	-6.26	-10.1	-11.9	-8.26	-8.56	0.24	-11.9
CC(C)[C@H]1C(=O)N[C@@H](CCCNC(=N)N)C(=O)NCC(=O)N[C@@H](CC(=O)O)C(=O)N[C@H](Cc2ccccc2)C(=O)N1C [Cilengitide] (top concentration 10000 nM)	0	0	0	0	0	0	0	0	0	5.5	4.2	7.5	0	0	0	0	7.1	0	0	11.3
CC(C)(C)c1nc(-c2cccc(NS(=O)(=O)c3c(F)cccc3F)c2F)c(-c2ccnc(N)n2)s1 [Dabrafenib] (top concentration 2500 nM)	-1.52	1.48	3.48	1.68	-0.92	-1.52	4.68	3.48	-1.52	3.08	5.18	1.18	0.88	0.58	0.48	-0.92	9.18	-0.22	0.58	-1.52
C[C@H]1O[C@@H](O[C@H]2[C@@H](O)C[C@H](O[C@H]3[C@@H](O)C[C@H](O[C@H]4CC[C@@]5(C)[C@H](CC[C@@H]6[C@@H]5C[C@@H](O)[C@]5(C)[C@@H](C7=CC(=O)OC7)CC[C@]65O)C4)O[C@@H]3C)O[C@@H]2C)C[C@H](O)[C@@H]1O [Digoxin] (top concentration 1000 nM)	6.3	8	5.5	9.8	10.3	10	12	5.6	10.5	5.6	9.1	6.9	8.1	8.9	-2.9	2.7	11.9	4.1	10	22.5
C[C@H](Nc1ncnc2nc[nH]c12)c1cc2cccc(Cl)c2c(=O)n1-c1ccccc1 [Duvelisib] (top concentration 500 nM)	-0.94	-0.94	-0.94	2.46	3.56	-0.54	1.26	-0.94	-0.14	-0.34	5.76	-0.94	21	4.36	-0.94	-0.94	-0.94	-0.84	-0.94	1.46
NC(=O)/C(=C/n1cnc(-c2cc(C(F)(F)F)cc(C(F)(F)F)c2)n1)c1cncnc1 [Eltanexor] (top concentration 10000 nM)	7.06	15.4	7.56	9.46	8.46	3.96	14.4	10.3	22.3	6.76	11.8	-1.84	12.7	9.66	-11.8	0.06	11.4	4.66	2.36	13.6
COC(=O)N[C@@H](C)CNc1nccc(-c2cn(C(C)C)nc2-c2cc(Cl)cc(NS(C)(=O)=O)c2F)n1 [Encorafenib] (top concentration 1000 nM)	1.6	0	0.9	0	0	0.1	1	0	0	0	1.3	0	1	0.2	0	0	1.7	0.2	0	0
